What is called EC50 is the concentration at which the effect is half-maximal. By inhibition is commonly meant the relative decrease from the control value, in per cent.

The test system of data set [1] is THP-1. Kind of data set: Cytotoxicity against human THP1 cells after 48 hrs by MTT assay. It counts as cell-based. The following applies: THP-1, 48 h.
Data set [2] can be described thus: Selectivity index, ratio of EC50 for human THP1 cells to EC50 for Leishmania major MHOM/JL/80/ Friedlin amastigotes infected in human THP1 cells. Format: toxicity, cell-based, THP-1. The following applies: read-out: Ratio EC50.
Data set [3] concerns Leishmania donovani. Kind of data set: Anti-leishmanial activity against Leishmania donovani MHOM/IND/80/Dd8 amastigotes infected in human THP1 cells incubated for 72 hrs at 37 degC by DAPI staining based assay. Format: functional, organism-based. The following applies: MHOM/IND/80/Dd8, THP-1, 72 h.
For data set [4], the system named is Leishmania major. Kind of data set: Anti-leishmanial activity against Leishmania major MHOM/JL/80/ Friedlin amastigotes infected in human THP1 cells incubated for 72 hrs at 37 degC by DAPI staining based assay. It counts as functional, organism-based. The following applies: THP-1, 72 h.
A short description of data set [5]: Selectivity index, ratio of EC50 for human THP1 cells to EC50 for Leishmania donovani MHOM/IND/80/Dd8 amastigotes infected in human THP1 cells. The following applies: read-out: Ratio EC50. Format: toxicity, cell-based, THP-1.
For data set [6], the system named is Leishmania donovani. Put plainly: Anti-leishmanial activity against Leishmania donovani MHOM/IND/80/Dd8 promastigotes incubated for 72 hrs at 28 degC. Format: functional, organism-based. The following applies: MHOM/IND/80/Dd8, 72 h.
For data set [7], the system named is Leishmania major. Kind of data set: Anti-leishmanial activity against Leishmania major MHOM/JL/80/ Friedlin promastigotes incubated for 72 hrs at 28 degC. It counts as functional, organism-based.
Data set [8] deals with Leishmania donovani. Kind of data set: Anti-leishmanial activity against Leishmania donovani MHOM/IND/80/Dd8 promastigotes expressing pXG empty vector incubated for 72 hrs at 28 degC. The following applies: MHOM/IND/80/Dd8, 72 h. It counts as functional, organism-based.
Data set [9] concerns Leishmania donovani. Kind of data set: Anti-leishmanial activity against Leishmania donovani MHOM/IND/80/Dd8 promastigotes expressing pXG-EK incubated for 72 hrs at 28 degC. It counts as functional, organism-based. The following applies: MHOM/IND/80/Dd8, 72 h.
The test system of data set [10] is Leishmania major. Kind of data set: Reduction in ATP level in Leishmania major MHOM/JL/80/ Friedlin promastigotes at 0.2 uM measured up to 3 hrs by cell-titer-Glo luminescence assay. It counts as functional, organism-based.
For data set [11], the system named is Leishmania donovani. Put plainly: Induction of plasma membrane depolarization in Leishmania donovani MHOM/IND/80/Dd8 promastigotes at 30 uM after 3 hrs by […] dye based fluorescence assay. It counts as functional, organism-based.
Data set [12] deals with Leishmania major. Kind of data set: Induction of plasma membrane depolarization in Leishmania major MHOM/JL/80/ Friedlin promastigotes at 0.2 uM after 1 hr by […] dye based fluorescence assay. It counts as functional, organism-based.
Data set [13] deals with Leishmania donovani. Put plainly: Effect on mitochondrial membrane potential in Leishmania donovani MHOM/IND/80/Dd8 promastigotes at 30 uM after 3 hrs by […] dye based fluorescence assay. Format: functional, organism-based.
The test system of data set [14] is Leishmania donovani. Kind of data set: Anti-leishmanial activity against Leishmania donovani MHOM/IND/80/Dd8 promastigotes incubated for 72 hrs at 28 degC in presence of 10 mM choline. Format: functional, organism-based. The following applies: MHOM/IND/80/Dd8, 72 h.
Data set [15] relates to Leishmania donovani. Kind of data set: Anti-leishmanial activity against Leishmania donovani MHOM/IND/80/Dd8 amastigotes expressing pXG-CEK infected in human THP1 cells incubated for 72 hrs at 37 degC. Format: functional, organism-based. The following applies: MHOM/IND/80/Dd8, THP-1, 72 h.
Data set [16] relates to Leishmania major. Kind of data set: Reduction in ATP level in Leishmania major MHOM/JL/80/ Friedlin promastigotes at 0.2 uM after 1 hr by cell-titer-Glo luminescence assay. Format: functional.
The subject of data set [17] is Leishmania major. Kind of data set: Reduction in ATP level in Leishmania major MHOM/JL/80/ Friedlin promastigotes at 30 uM after 3 hrs by cell-titer-Glo luminescence assay. It counts as functional.
Data set [18] concerns Leishmania major. Kind of data set: Effect on mitochondrial membrane potential in Leishmania major MHOM/JL/80/ Friedlin promastigotes at 0.2 uM after 1 hr by […] dye based fluorescence assay. Format: functional, organism-based.
Data set [19] is described as follows: Selectivity index, ratio of EC50 for Leishmania donovani MHOM/IND/80/Dd8 promastigotes to EC50 for Leishmania major MHOM/JL/80/ Friedlin promastigotes. It counts as functional.
Data set [20] has as its system Leishmania donovani. Put plainly: Anti-leishmanial activity against Leishmania donovani MHOM/IND/80/Dd8 amastigotes expressing pXG empty vector infected in human THP1 cells incubated for 72 hrs at 37 degC. Format: functional, organism-based. The following applies: MHOM/IND/80/Dd8, THP-1, 72 h.
In data set [21] the test system is Leishmania donovani. Put plainly: Reduction in ATP level in Leishmania donovani MHOM/IND/80/Dd8 promastigotes at 30 uM after 3 hrs by cell-titer-Glo luminescence assay. It counts as functional, organism-based.
For data set [22], the system named is Leishmania donovani. Put plainly: Anti-leishmanial activity against Leishmania donovani MHOM/IND/80/Dd8 amastigotes expressing pXG-EK infected in human THP1 cells incubated for 72 hrs at 37 degC. The following applies: MHOM/IND/80/Dd8, THP-1, 72 h. Format: functional, organism-based.
Data set [23] relates to Leishmania donovani. Kind of data set: Anti-leishmanial activity against Leishmania donovani MHOM/IND/80/Dd8 promastigotes expressing pXG-CEK incubated for 72 hrs at 28 degC. Format: functional, organism-based. The following applies: MHOM/IND/80/Dd8, 72 h.
Data set [24] deals with Leishmania donovani. Put plainly: Anti-leishmanial activity against Leishmania donovani MHOM/IND/80/Dd8 promastigotes incubated for 72 hrs at 28 degC in presence of 10 mM ethanolamine. Format: functional, organism-based. The following applies: MHOM/IND/80/Dd8, 72 h.

Molecules are shown by their SMILES. The source made the active and inactive calls. The calls are words filed in the database; no cut-off is given here.

Regarding `c1cc2cc(c1)CNc1cc[n+](cc1)CCCCC[n+]1ccc(cc1)NC2`, the EC50 in [1] came to 192 µM; in data set [3], 13.5 µM; in data set [4], 5.94 µM; in data set [6] it was 52 µM; in data set [7] it was 16.8 µM. The selectivity ratio in [2] came to 32.3; in [5] it was 14.2.
On to `c1cc2ccc1CNc1cc[n+](cc1)CCCCC[n+]1ccc(cc1)NC2`, for which the EC50 in data set [1] amounted to 165 µM; in data set [3], 38.3 µM; in [4], 0.97 µM; in data set [6], 26.4 µM; in [7] it was 0.17 µM. Besides, the selectivity ratio in data set [2] is 170; in data set [5], 4.3.
With `CCCCCCCCCCCCCCCCOP(=O)([O-])OCC[N+](C)(C)C` [MILTEFOSINE], the EC50 in data set [1] amounted to 26.9 µM; in [3] it was 0.88 µM; in data set [4], 10.6 µM; in [6] it was 6.6 µM; in [7], 16.6 µM. Further, the selectivity ratio in data set [2] was 2.5; in data set [5], 30.5.
`c1c[n+]2ccc1NCCOCCNc1cc[n+](cc1)CCOCC2`: the EC50 in data set [1] turned out to be 128 µM; in data set [3], 20.7 µM; in data set [4], 2.24 µM; in [6], 23.4 µM; in data set [7], 0.19 µM. Moreover, the selectivity ratio in data set [2] was 57.2; in [5], 6.2.
For `c1c[n+]2ccc1NCCCCCNc1cc[n+](cc1)CCCCC2`, the EC50 in [1] was 154 µM; in data set [8] it was 13.5 µM; in data set [9] it was 12 µM; in [14], 11.5 µM; in [15], 12.7 µM; in data set [3], 7.62 µM. The EC50 was 8.84 µM in data set [20]; 1.26 µM in data set [4]; 10.6 µM in [6]; 10.5 µM in data set [22]; 0.07 µM in data set [7]; 11.5 µM in data set [23]. Also, in [24], the half-maximal effective concentration (EC50) turned out to be 12 µM. The selectivity ratio in data set [2] was determined as 122; in [5] it was 20.2. Besides, in data set [10], the inhibition result was “Active”. Besides, the outcome in data set [11], in data set [13] and in [18] was inactive. For the same compound, the outcome in data set [12] was Active. In addition, the inhibition at 0.2 µM in data set [16] is more than 50%. In [17], this compound showed an inhibition at 30 µM of 95%. Moreover, the Ratio EC50 in data set [19] is 100. In addition, in data set [21], the inhibition result was “inactive”.
For the compound `c1c[n+]2ccc1NCCCCCNc1cc[n+](cc1)CCOCC2`, the EC50 is 215 µM in data set [1]; 13 µM in data set [3]; 2.18 µM in [4]; 31.4 µM in [6]; 0.26 µM in [7]. For the same compound, the selectivity ratio in data set [2] was 98.5; in data set [5], 16.6.
Regarding `c1cc2ccc1CNc1cc[n+](cc1)CCOCC[n+]1ccc(cc1)NC2`, the EC50 turned out to be 222 µM in [1]; 63.7 µM in data set [3]; 17.2 µM in data set [4]; 76.9 µM in data set [6]; 26.5 µM in data set [7]. The selectivity ratio in data set [2] was found to be 12.9; in data set [5], 3.5.
Consider `C[C@@H]1[C@H](O)[C@@H](C)/C=C/C=C/C=C/C=C/C=C/C=C/C=C/[C@H](O[C@@H]2O[C@H](C)[C@@H](O)[C@H](N)[C@@H]2O)C[C@@H]2O[C@](O)(C[C@@H](O)C[C@@H](O)[C@H](O)CC[C@@H](O)C[C@@H](O)CC(=O)O[C@H]1C)C[C@H](O)[C@H]2C(=O)O` [AMPHOTERICIN B], for which the EC50 in [1] is 14.3 µM; in data set [3], 0.28 µM; in data set [4], 0.24 µM; in data set [6] it was 0.21 µM; in data set [7], 0.32 µM. The selectivity ratio amounted to 59.7 in data set [2] and 51.1 in [5].
Turning to `c1c[n+]2ccc1NCCOCCNc1cc[n+](cc1)CCCCC2`, the 50% effective concentration (EC50) was determined as 162 µM in data set [1]; 33.2 µM in [3]; 2.59 µM in [4]; 31.5 µM in [6]; 0.26 µM in data set [7]. The selectivity ratio in data set [2] came to 62.7; in data set [5], 4.9.
With `c1cc2cc(c1)CNc1cc[n+](cc1)CCOCC[n+]1ccc(cc1)NC2`, the concentration for a half-maximal effect (EC50) in [1] amounted to 195 µM; in data set [3], 8.92 µM; in data set [4] it was 8.67 µM; in [6] it was 33.8 µM; in data set [7], 5.97 µM. For the same compound, in [2], the selectivity ratio is 22.5.
Consider `c1cc2cc(c1)C[n+]1ccc(cc1)NCCOCCNc1cc[n+](cc1)C2`, for which the EC50 came out at 194 µM in data set [1]; 21.2 µM in data set [3]; 1.61 µM in data set [4]; 76.3 µM in data set [6]; 2.87 µM in data set [7]. Also, the selectivity ratio in data set [2] came out at 121; in [5] it was 9.2.

The values are drawn from ChEMBL document CHEMBL3351596, “Design, synthesis and anti-leishmanial activity of novel symmetrical bispyridinium cyclophanes” (Eur J Med Chem, 2015).
